Earlier results on one compound are cited in patent US4898737A, “Controlled absorption pharmaceutical composition” (Elan Corporation plc, priority 1983, dated 1990).

For `CC(C)NCC(O)COc1cccc2ccccc12` (stereo not drawn) [propranolol, 1-(isopropylamino)-3-(1-naphthyloxy)-2-propanol], the “time of peak plasma concentrations” value (after a single oral dose) was “one to two”. For the same compound, for the setting “oral”, the metabolism result is “extensively and rapidly metabolised”; the urinary excretion entry was “excreted in the urine as free and conjugated propranolol and as metabolites”.
